Experiment [1] relates to AD patients. The following applies: cited from earlier work.
Experiment [2] concerns dbAMPc/NGF-differentiated human SH-SY5Y human neuroblastoma cells. Briefly: Generation of the 20-22 kDa NH2 tau fragment in differentiated SH-SY5Y exposed to soluble AD brain extracts (Western blot). It counts as cell-based. The conditions noted are these: 12 h with 1 mg/ml AD brain extract. The source says: FIG. 5. The soluble extracts from AD brain homogenates containing Aβ oligomers induce neurotoxicity and production of the NH2-derived 20-22 kDa tau fragment through the caspase-(s) activation in human differentiated SY5Y. A-B): Biochemical characterization of native Aβ oligomers enriched by crude soluble proteins extracts of AD and age-matched non-demented control brain prepared as reported by, which contained almost no Aβ monomers since the ability of these low-molecular weight species to pass readily through the 10 kDa cutoff filters under the conditions used here. Samples extracted from two different AD brain specimens were pooled and retentates—obtained by 10 kDa cutoff filters (Vivaspin 4 VSO403)—were added to the cell culture at a final concentration of 1 mg/ml. […] Unheated samples were applied on the gel in two different lanes and after transfer the membrane was cut in two equal parts and analyzed in parallel. […] Each data point is the mean±SE (bars) of five independent experiments and statistically significant differences were calculated by paired t-Student's test (*p<0.05; ***p<0.001). […] Each data point is the mean±SE (bars) of three independent experiments and statistically significant differences were calculated by paired t-Student's test (*p<0.05; **p<0.01; ***p<0.001). […]
For orientation: A western blot detects proteins with antibodies after separation by electrophoresis.

In experiment [3] the test system is adenine nucleotide translocator (ANT-1). The conditions noted are these: in vitro; cited from earlier work.
The subject of experiment [4] is neuronal mitochondria. The conditions noted are these: cited from earlier work; for intracellular ATP bioavailability: ATP synthesized by neuronal mitochondria.
The target in experiment [5] is T1, 20-22 kDa NH2-truncated tau fragment (human, UniProt P10636 26-547).
T1 construct: Endogenous fragment in human synaptosomes, mitochondria, CSF and STS-treated SH-SY5Y cells; Exact limits not proven; also called NH2htau; NH2 htau fragment
T1 sequence (P10636 other isoform, or with tags, fused parts or gaps limits assumed): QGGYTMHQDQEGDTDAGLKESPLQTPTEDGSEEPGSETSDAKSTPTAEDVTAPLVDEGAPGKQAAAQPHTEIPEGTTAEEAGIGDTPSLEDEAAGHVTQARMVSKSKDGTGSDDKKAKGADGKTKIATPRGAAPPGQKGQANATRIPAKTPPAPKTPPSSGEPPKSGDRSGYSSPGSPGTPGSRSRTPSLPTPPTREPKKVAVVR
Briefly: co-immunoprecipitation from synaptosomes with CCP-NH2 tau as bait antibody. As for the experimental part: A): Western blotting comparing synaptosomal proteins (500 μg) from ND, AD (ND, AD) subjects immunoprecipitated (IP) and probed (WB) with CCP—NH₂ tau (NH₂ aa 26-36 of human tau) antiserum. Total proteins extracts (70 μg unbound) from STS-treated (6hSY5Y) neuronal human SY5Y and from AD synaptosomal proteins (INPUT) were also loaded for lane and included as positive internal control of electrophoretic mobility and immunoprecipitation efficiency. It is noteworthy that a NH₂-tau fragment around 20-22 kDa (arrow), but not-full-length proteins running at 55-75 kDa(arrowheads), was efficiently immunoprecipitated by CCP—NH₂ tau antiserum on synaptic-enriched fractions from AD. The asterisk indicate immunoglobulin light chains in immunoprecipitates and no significant cross-reactions with human intact tau iso forms was found in total, un-precipitated proteins. B-F): In C), Western blotting analysis comparing synaptosomal proteins (500 μg) from ND, AD (ND, AD) subjects immunoprecipitated (IP) with CCP—NH₂ tau (NH₂ aa26-36 of human tau) antiserum and probed (WB) with ANT-1 antibody (the least C-terminal 12 amino acids of human neuronal ANT-1). […]
Next the authors analyzed whether ANT-1—the neuronal-specific isoform of ANT protein—was a mitochondrial target of the NH₂htau fragment.

Read-outs that look alike come from different tables or passages of the source. Peptide text beside a SMILES is read from it. * marks the point of attachment. Cbz = O=C(OCc1ccccc1)*; CH2F = FC*

Turning to `Cc1ccc2c(c1)c1c(n2CCc2ccc(C)nc2)CCN(C)C1` [Dimebon], in experiment [1], the “duration of improved cognitive performance in AD patients” value is on record as 12-18 months.

Regarding `COC(=O)C[C@H](NC(=O)[C@H](C)NC(=O)[C@@H](NC(=O)OCc1ccccc1)C(C)C)C(=O)CF` [Z-VADfmk] (Cbz-Val-Ala-Asp(OMe)-CH2F), the “appearance of 20-22 kDa NH2 tau fragment after pre-incubation with protease inhibitor” value in experiment [2] (100 μM Z-VADfmk or 20 μM MDL28170) is reported as “significantly reduced the appearance of 20-22 kDa NH2 tau fragment”. Besides, the “caspase-3 activation (cleaved caspase-3 Western blot)” value in experiment [2] (100 μM Z-VADfmk) is reported as “blocking the caspase-3 activation”.

With “NH2-26-44 peptide: synthesized NH2-26-44 tau peptide, minimal active moiety of the NH2-26-230 human tau fragment (QGGYTMHQDQEGDTDAGLK)”, in experiment [3], the “ANT-1-mediated ADP/ATP exchange” value is given as “specifically inhibited the ANT-1-mediated ADP/ATP exchange in a non-competitive manner”. The “intracellular ATP bioavailability” value was “reduces the intracellular ATP bioavailability” in experiment [4] and “reduced the intracellular bioavailability of ATP” in experiment [4] (listed as NH226-44 tau). The mitochondrial oxidative phosphorylation entry in experiment [4] (in vitro) is “impairs the mitochondrial oxidative phosphorylation”.

B1: MnSOD-II (enzyme, human, UniProt P04179 25-222, looked up)
chain: KHSLPDLPYDYGALEPHINAQIMQLHHSKHHAAYVNNLNVTEEKYQEALAKGDVTAQIALQPALKFNGGGHINHSIFWTNLSPNGGGEPKGELLEAIKRDFGSFDKFKEKLTAASVGVQGSGWGWLGFNKERGHLQIAACPNQDPLQGTTGLIPLLGIDVWEHAYYLQYKNVRPDYLKAIWNVINWENVTERYMACKK
notes: also called mitochondrial superoxide dismutase
Consider B1, for which, in experiment [5], the binding result is recorded as “no binding”.
